Data taken from US8110398B2, “Stable cell lines and methods for evaluating gastrointestinal absorption of chemicals” (Absorption Systems Group, LLC, priority 2006, dated 2012).

Key:
in vitro [1] = conditions: human, pH 7.4
in vitro [2] = conditions: human, Caco-2, pH 7.4
P-gp [3] = biological target: T1, P-gp (Homo sapiens, UniProt P08183); test: in vitro
Protocol: (§1) Bidirectional Transcellular Transport assay.
(§2) Each determination was performed in duplicate.
The assay was carried out after each clone had been passaged 9 times.

MRP2 mRNA = test: RT-PCR of MRP2 mRNA expression in transduced C2BBe1 cells; type: cell-based, human; conditions: cells passaged 20 times
Protocol: (§3) RT-PCR. Total RNA was extracted from cells according to the following protocol. Cells were harvested from culture by centrifugation, resuspended in 1 ml of TRIzol® reagent (Invitrogen, Carlsbad, Calif.), and incubated at room temperature for 5 minutes with gentle shaking. The suspension was transferred to a 1.5 ml centrifuge tube, to which 200 μl of Chloroform was added, followed by an additional 5 minute incubation period with shaking. After incubation, the suspension was centrifuged at 12,000×g for 12 minutes at 4° C. The supernatant was transferred to a fresh, sterile 1.5 ml centrifuge tube, and supplemented with 0.5 ml of 2-propanaol per 1 ml of TRIzol reagent, and incubated for 10 minutes at room temperature. The mixture was then centrifuged at 12,000×g for an additional 12 minutes at 4° C. After centrifugation, the supernatant was removed and the pellet was washed with 75% ethanol. The sample was re-centrifuged at 7500×g for 5 minutes at 4° C., followed by the removal of the supernatant. The pellet was allowed to air dry at room temperature. The pellet was resuspended in pre-warmed (55° C.) nuclease-free water, and incubated at 55° C. for 10 minutes. RNA yield and purity were quantified by absorbance at 260 nm and 280 nm.
(§4) RT-PCR mixtures were set up as 50 μl samples containing buffer, 1-2 μg of RNA, 10 μM of Forward primer, 10 μM of Reverse primer, Taq polymerase, and water. Primers to amplify human P-gylcoprotein were as follows: P-gp Forward 5′-[…]-3′ (SEQ ID NO: 9); and, P-gp Reverse 5′-[…]-3′ (SEQ ID NO: 10). Primers to amplify human MRP2 were as follows: MRP2 Forward 5′-[…]-3′ (SEQ ID NO: 11); and, MRP2 Reverse 5′-[…]-3′ (SEQ ID NO: 12). Primes to amplify human BCRP were as follows: BCRP Forward 5′-[…] 3′ (SEQ ID NO: 13); and, BCRP Reverse 5′-[…] 3′ (SEQ ID NO: 14). Human β-actin was amplified in parallel as a positive control using the following primers: β-actin Forward 5′-[…]-3′ (SEQ ID NO: 15); and, β-actin Reverse 5′-[…]-3′ (SEQ ID NO: 16).
(§5) The PCR cycles proceeded in a programmable thermocycler with the following parameters: cDNA synthesis, 1 cycle, 55° C. for 30 minutes; denaturation, 1 cycle, 94° C. for 2 minutes; PCR amplification, 40 cycles of 94° C. for 15 seconds, 62° C. for 30 seconds, 72° C. for 1 minute; and, final extension, 1 cycle, 72° C. for 5 minutes. Amplification was confirmed by electrophoresis in 2% agarose gels.
For this example, gene expression of MRP2 in C2BBe1 cells was determined by observing both the MRP2 mRNA content as well as the protein content of the cells following viral transduction. To examine mRNA content, total cellular RNA was harvested and amplified by RT-PCR using primers specific to the MRP2 gene (SEQ ID NO: 11 and 12). The RT-PCR products were then analyzed after separation by electrophoresis on a 2% agarose gel.
Vector control (VC) cells were prepared from cells transducted with lentiviruses encoding a non-interfering nucleic acid sequence (SEQ ID NO 27), as described in Example 7. Methods were described in Example 1. […]

BCRP = biological target: T2, BCRP (Homo sapiens, UniProt Q9UNQ0); test: Bidirectional transcellular transport of E3S (BCRP substrate) across C2BBe1-derived monolayers; conditions: compared to control cells
T2 sequence (Q9UNQ0 1-655): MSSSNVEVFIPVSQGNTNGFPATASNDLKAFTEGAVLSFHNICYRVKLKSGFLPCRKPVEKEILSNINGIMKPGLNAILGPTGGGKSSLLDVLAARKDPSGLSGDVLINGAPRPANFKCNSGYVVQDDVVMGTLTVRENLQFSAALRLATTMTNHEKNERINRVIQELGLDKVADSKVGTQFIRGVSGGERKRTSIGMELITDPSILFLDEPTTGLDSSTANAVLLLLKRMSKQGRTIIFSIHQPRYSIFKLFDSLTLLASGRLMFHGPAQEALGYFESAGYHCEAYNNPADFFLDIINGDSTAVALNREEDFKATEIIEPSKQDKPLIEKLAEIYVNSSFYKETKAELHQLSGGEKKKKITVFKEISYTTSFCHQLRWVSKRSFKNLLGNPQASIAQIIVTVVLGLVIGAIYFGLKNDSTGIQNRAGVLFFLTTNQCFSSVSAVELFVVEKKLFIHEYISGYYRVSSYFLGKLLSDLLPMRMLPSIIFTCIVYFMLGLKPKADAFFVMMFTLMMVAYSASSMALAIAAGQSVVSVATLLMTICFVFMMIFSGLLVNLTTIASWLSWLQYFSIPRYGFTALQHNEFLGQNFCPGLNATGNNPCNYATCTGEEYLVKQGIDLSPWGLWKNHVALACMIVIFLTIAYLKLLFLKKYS
Protocol: as §1, §2
Each of the five shRNA/BCRP knockdown clone cells were seeded on transwells for three weeks for the transport assay.

P-gp mRNA = test: RT-PCR of P-gp mRNA expression in transduced C2BBe1 cells; type: cell-based, human; conditions: for P-gp mRNA expression relative to control C2BBe1 cells: RT-PCR, shRNA/P-gp clone cells
Protocol: as §3, §4, §5
Gene expression of P-gp in knockdown cells (shRNA/P-gp clones #83, 84, 85, 86, and 87) was determined by observing P-gp mRNA content, protein content and protein functional activity. RT-PCR was used to determine the expression of the P-gp mRNA. Total cellular RNA was harvested and amplified using primers specific to P-gp mRNA. RT-PCR products were then separated by electrophoresis on a 2% agarose gel. It was determined that 4 of the 5 shRNA/P-gp clone cells contained substantially less P-gp mRNA than control C2BBe1 cells (FIG. 2, top panel). β-actin was amplified, in parallel, as a positive control, and its expression was not affected by the interfering shRNA (FIG. 2, bottom panel).

BCRP mRNA = test: RT-PCR of BCRP mRNA expression in transduced C2BBe1 cells; type: cell-based, human; conditions: between passages 5 and 20
Protocol: as §3, with “The sample was re-centrifuged at 7500×g for 5 minutes at 4° C., followed by the removal of the supernatant. The pellet was allowed to air dry at room temperature. The pellet was resuspended in pre-warmed (55° C.) nuclease-free water, and incubated at 55° C. for 10 minutes.” left out, “nm. […]” for “nm.”
For RT-PCR, total cellular RNA was harvested as described in Examples 1 and 3 and amplified by RT-PCR using primers specific to BCRP mRNA (SEQ ID NOs: 13 and 14). The RT-PCR products were separated by electrophoresis on a 2% agarose gel and analyzed to determine whether shRNA/BCRP clone cells produced substantially less BCRP mRNA than C2BBe1 cells transduced with a non-interfering shRNA vector control.

P-gp [4] = biological target: T1, P-gp; test: Calcein-AM assay; conditions: transduced C2BBe1 cells vs Un-KD
Protocol: Calcein-AM assay. To determine activity of the P-gp protein, calcein-AM assays were conducted.
To determine the P-gp activity, cells were plated in 96-well tissue culture plates and cultured for 48. After 48 hours, cell culture media was removed and the cells were washed with phosphate buffered saline solution (PBS). After washing, cells were incubated with 1 μM calcein-AM for 30 minutes. […] After incubation with calcein-AM, the cells were rinsed with fresh control buffer and fluorescence was measured using a Fluo-star fluorescence plate reader (BMG Lab Technologies, N.C.) with excitation and emission filters set at wavelengths of 485 nm and 538 nm, respectively.
Calcein-AM efflux is not mediated by BCRP. Therefore, any increase in calcein-AM uptake by the cells can be attributed to P-gp inhibition. The cells were plated in 96-well tissue culture plates and cultured for 48 hours. After 48 hours, cell culture media was removed and the cells were washed with phosphate buffered saline solution (PBS). After washing, cells were incubated with 1 μM calcein-AM for 30 minutes. […] After incubation with calcein-AM, the cells were rinsed with fresh control buffer and fluorescence was measured using a Fluo-star fluorescence plate reader (BMG Lab Technologies, N.C.) with excitation and emission filters set at wavelengths of 485 nm and 538 nm, respectively. The assay was carried out after each clone had been passaged 9 times.

T1 sequence (P08183 whole entry): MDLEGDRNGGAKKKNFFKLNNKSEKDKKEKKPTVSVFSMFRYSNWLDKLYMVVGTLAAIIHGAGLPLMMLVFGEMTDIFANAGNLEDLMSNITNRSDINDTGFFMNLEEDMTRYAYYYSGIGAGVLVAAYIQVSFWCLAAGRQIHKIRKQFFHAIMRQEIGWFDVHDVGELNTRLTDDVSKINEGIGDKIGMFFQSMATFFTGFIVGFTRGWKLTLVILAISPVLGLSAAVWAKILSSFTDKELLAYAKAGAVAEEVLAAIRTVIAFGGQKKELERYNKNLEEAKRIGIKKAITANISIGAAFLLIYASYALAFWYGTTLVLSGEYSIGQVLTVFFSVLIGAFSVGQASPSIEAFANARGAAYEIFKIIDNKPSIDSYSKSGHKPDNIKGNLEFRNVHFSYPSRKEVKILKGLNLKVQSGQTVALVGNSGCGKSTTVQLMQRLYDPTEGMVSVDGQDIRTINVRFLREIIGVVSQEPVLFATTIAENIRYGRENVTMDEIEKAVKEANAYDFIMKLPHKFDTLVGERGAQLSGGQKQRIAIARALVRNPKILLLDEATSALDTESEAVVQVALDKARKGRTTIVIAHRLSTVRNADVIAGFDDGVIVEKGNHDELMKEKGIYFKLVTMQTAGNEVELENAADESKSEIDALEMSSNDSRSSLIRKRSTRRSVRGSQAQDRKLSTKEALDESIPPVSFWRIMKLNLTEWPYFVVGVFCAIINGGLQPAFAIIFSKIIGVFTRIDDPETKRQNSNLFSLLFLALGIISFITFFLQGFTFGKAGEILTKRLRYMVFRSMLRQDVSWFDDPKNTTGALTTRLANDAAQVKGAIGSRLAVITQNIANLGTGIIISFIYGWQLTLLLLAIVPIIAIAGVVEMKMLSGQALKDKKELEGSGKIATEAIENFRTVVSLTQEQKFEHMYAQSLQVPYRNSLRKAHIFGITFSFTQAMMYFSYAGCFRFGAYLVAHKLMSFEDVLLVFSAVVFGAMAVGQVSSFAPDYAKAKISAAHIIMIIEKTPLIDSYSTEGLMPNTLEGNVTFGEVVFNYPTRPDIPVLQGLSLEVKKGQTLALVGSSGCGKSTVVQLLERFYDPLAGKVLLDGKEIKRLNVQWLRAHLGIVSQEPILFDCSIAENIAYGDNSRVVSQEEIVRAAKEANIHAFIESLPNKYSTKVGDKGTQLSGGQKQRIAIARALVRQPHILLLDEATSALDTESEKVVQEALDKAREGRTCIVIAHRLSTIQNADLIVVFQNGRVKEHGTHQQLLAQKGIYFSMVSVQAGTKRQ

Compound	efflux ratio at 2 h (in vitro [1])	efflux ratio at 2 h (in vitro [2])	P-gp function by intracellular calcein fluorescence (P-gp [4])	P-gp mRNA expression relative to control C2BBe1 cells (P-gp mRNA)	further results
Cc1cc(=O)n(-c2ccccc2)n1C [Antipyrine]	0.92	0.84	–	–	–
CNCCCN1c2ccccc2CCc2ccccc21 [Desipramine]	6.84	5.59	–	–	–
C[C@H]1O[C@@H](O[C@H]2[C@@H](O)C[C@H](O[C@H]3[C@@H](O)C[C@H](O[C@H]4CC[C@@]5(C)[C@H](CC[C@@H]6[C@@H]5C[C@@H](O)[C@]5(C)[C@@H](C7=CC(=O)OC7)CC[C@]65O)C4)O[C@@H]3C)O[C@@H]2C)C[C@H](O)[C@@H]1O [Digoxin]	–	–	–	–	Papp A→B at 2 h (P-gp [3]; Caco-2, pH 7.4, Efflux of digoxin A-B): 0.2 ×10⁻⁶ cm/s; Papp B→A at 2 h (P-gp [3]; Caco-2, pH 7.4, Efflux of digoxin B-A): 3.69 ×10⁻⁶ cm/s; Papp B→A at 2 h, 10 µM (P-gp [3]; Caco-2, pH 7.4, Papp B-A (Digoxin)): 8.24 ×10⁻⁶ cm/s
COc1cc([C@@H]2c3cc4c(cc3[C@@H](O[C@@H]3O[C@@H]5CO[C@@H](C)O[C@H]5[C@H](O)[C@H]3O)[C@H]3COC(=O)[C@H]23)OCO4)cc(OC)c1O [Etoposide]	11.5	13.7	–	–	–
shRNA/BCRP 801: 21-nucleotide sequence targeting human BCRP gene, SEQ ID NO: 25, lentivirally transduced into C2BBe1 cells; clone #801 (CCGGGCTGTGGCATTAAACAGAGAACTCGAGTTCTCTGTTTAATGCCACAGCTTTTTG; listed as Homo Sapiens)	–	–	–	–	MRP2 mRNA levels in shRNA/BCRP clone cells (MRP2 mRNA): reduced; inhibition for BCRP function in E3S transport (BCRP): 96.43%; P-gp mRNA levels in shRNA/BCRP clone cells (P-gp mRNA; compared with #799 and control cells): higher; BCRP mRNA knockdown over passages (BCRP mRNA): steadily increased
shRNA/P-gp #84: shRNA to human P-gp, SEQ ID NO: 2, lentivirally transduced into C2BBe1 cells; clone #84 (CCGGGCAGCAATTAGAACTGTGATTCTCGAGAATCACAGTTCTAATTGCTGCTTTTTG; listed as Homo Sapiens)	–	–	significantly decreased	significantly reduced	–
shRNA/P-gp #85: shRNA to human P-gp, SEQ ID NO: 3, lentivirally transduced into C2BBe1 cells; clone #85 (CCGGCGACAGAATAGTAACTTGTTTCTCGAGAAACAAGTTACTATTCTGTCGTTTTTG; listed as Homo Sapiens)	–	–	significantly decreased	significantly reduced	–
shRNA/P-gp #86: shRNA to human P-gp, SEQ ID NO: 4, lentivirally transduced into C2BBe1 cells; clone #86 (CCGGGCTCATCGTTTGTCTACAGTTCTCGAGAACTGTAGACAAACGATGAGCTTTTTG; listed as Homo Sapiens)	–	–	significantly decreased	significantly reduced	–
shRNA/P-gp #87: shRNA to human P-gp, SEQ ID NO: 5, lentivirally transduced into C2BBe1 cells; clone #87 (CCGGGCTGCTTTCCTGCTGATCTATCTCGAGATAGATCAGCAGGAAAGCAGCTTTTTG; listed as Homo Sapiens)	–	–	significantly decreased	significantly reduced	–
